Experimental data reported in the NIST ThermoML archive (doi:10.1021/acs.jced.9b00540).

Assay: xn = mol fraction of the nth substance listed
Details: Liquid

CCOC(F)(C(F)(F)C(F)(F)C(F)(F)F)C(F)(C(F)(F)F)C(F)(F)F (stereo not given) [2-trifluoromethyl-3-ethoxydodecafluorohexane] + CC(C)OC(C)C
viscosity [mPa·s]
Details | x1 = 0.25 | x1 = 0.375 | x1 = 0.5 | x1 = 0.625 | x1 = 0.75 | x1 = 1
313.15 K, 100000 kPa, Falling or rolling sphere viscometry | – | – | – | – | 2.663 | 4.307
333.15 K, 100 kPa, Capillary tube (Ostwald / Ubbelohde) method | 0.311 | 0.356 | 0.416 | 0.486 | 0.574 | 0.739
333.15 K, 20000 kPa, Falling or rolling sphere viscometry | 0.393 | 0.488 | 0.56 | 0.644 | 0.754 | 1.032
333.15 K, 40000 kPa, Falling or rolling sphere viscometry | 0.491 | 0.604 | 0.707 | 0.826 | 0.982 | 1.41
333.15 K, 60000 kPa, Falling or rolling sphere viscometry | 0.595 | 0.735 | 0.875 | 1.035 | 1.252 | 1.87
333.15 K, 80000 kPa, Falling or rolling sphere viscometry | 0.706 | 0.884 | 1.067 | 1.277 | 1.574 | 2.427
333.15 K, 100000 kPa, Falling or rolling sphere viscometry | 0.822 | 1.051 | 1.283 | 1.557 | 1.958 | 3.105
353.15 K, 100 kPa, Capillary tube (Ostwald / Ubbelohde) method | – | – | – | – | 0.465 | 0.576
353.15 K, 20000 kPa, Falling or rolling sphere viscometry | 0.34 | 0.399 | 0.442 | 0.499 | 0.591 | 0.799
353.15 K, 40000 kPa, Falling or rolling sphere viscometry | 0.428 | 0.508 | 0.578 | 0.66 | 0.773 | 1.084
353.15 K, 60000 kPa, Falling or rolling sphere viscometry | 0.517 | 0.622 | 0.724 | 0.836 | 0.997 | 1.418
353.15 K, 80000 kPa, Falling or rolling sphere viscometry | 0.61 | 0.739 | 0.879 | 1.025 | 1.245 | 1.808
353.15 K, 100000 kPa, Falling or rolling sphere viscometry | 0.706 | 0.855 | 1.037 | 1.223 | 1.504 | 2.265
